This note sets out measurements from ChEMBL document CHEMBL4699602, “Stapled and Xenopus Glucagon-Like Peptide 1 (GLP-1)-Based Dual GLP-1/Gastrin Receptor Agonists with Improved Metabolic Benefits in Rodent Models of Obesity and Diabetes” (J Med Chem, 2020).

Each structure is given as a SMILES string. Where a SMILES comes first, the peptide text is derived from it.

In assay [1] the target is T1, Glucagon-like peptide 1 receptor (Homo sapiens, UniProt P43220). The assay is described as follows: Agonist activity at human GLP-1R expressed in HEK293 cells assessed as stimulation of cAMP accumulation incubated for 20 mins in presence of 0% HSA. The format is functional, cell-based.
The target in assay [2] is T1, Glucagon-like peptide 1 receptor. The assay is described as follows: Agonist activity at human GLP-1R expressed in HEK293 cells assessed as stimulation of cAMP accumulation incubated for 20 mins in presence of 4.4% HSA. The format is functional, cell-based.
The target is the same in assay [3]. The experiment in a line: Ratio of EC50 for agonist activity at human GLP-1R expressed in HEK293 cells in presence of 4.4% HSA to EC50 for agonist activity at human GLP-1R expressed in HEK293 cells in presence of 0% HSA. The format is cell-based.

T1 sequence (P43220 whole entry): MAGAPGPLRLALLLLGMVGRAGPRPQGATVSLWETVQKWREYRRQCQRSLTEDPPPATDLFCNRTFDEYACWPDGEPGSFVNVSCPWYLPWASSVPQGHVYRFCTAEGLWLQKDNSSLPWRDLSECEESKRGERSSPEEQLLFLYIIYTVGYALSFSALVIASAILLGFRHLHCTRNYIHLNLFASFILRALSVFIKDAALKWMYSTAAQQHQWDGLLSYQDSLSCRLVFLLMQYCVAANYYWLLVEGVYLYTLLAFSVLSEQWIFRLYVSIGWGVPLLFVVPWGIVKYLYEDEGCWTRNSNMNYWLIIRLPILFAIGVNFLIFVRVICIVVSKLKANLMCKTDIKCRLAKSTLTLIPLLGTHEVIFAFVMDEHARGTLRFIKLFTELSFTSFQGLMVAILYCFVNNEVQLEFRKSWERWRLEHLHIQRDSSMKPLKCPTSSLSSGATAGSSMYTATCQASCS

As for `CC[C@H](C)[C@@H]1NC(=O)[C@H](CC(C)C)NC(=O)[C@H](Cc2c[nH]c3ccccc23)NC(=O)[C@H](CCC(=O)O)NC(=O)[C@H]([C@@H](C)CC)NC(=O)[C@H](Cc2ccccc2)NC(=O)[C@@H](NC(=O)[C@H](CCCCN)NC(=O)[C@H](C)NC(=O)[C@H](C)NC(=O)[C@H](CCC(=O)O)NC(=O)[C@H](CCC(=O)O)NC(=O)[C@H](CCC(=O)O)NC(=O)[C@H](CC(C)C)NC(=O)[C@H](Cc2ccc(O)cc2)NC(=O)[C@H](CCC(=O)O)NC(=O)[C@@H](NC(=O)[C@@H](NC(=O)[C@H](CC(=O)O)NC(=O)[C@H](CC(N)=O)NC(=O)[C@@H](NC(=O)[C@H](Cc2ccc(O)cc2)NC(=O)[C@@H](NC(=O)CNC(=O)[C@H](CCC(=O)O)NC(=O)C(C)(C)NC(=O)[C@@H](N)Cc2c[nH]cn2)[C@@H](C)O)[C@@H](C)O)C(C)C)[C@@H](C)O)CSC2CC(=O)N(CCC(=O)NCCCCC(C(=O)NCCCCCCNC(=O)COCCOCCNC(=O)CCC(NC(=O)CCCCCCCCCCCCCCCCC(=O)O)C(=O)O)NC(=O)CCN3C(=O)CC(SC[C@@H](C(=O)NCC(=O)N[C@@H](CCCCN)C(=O)N4CCC[C@H]4C(=O)N[C@@H](CO)C(=O)N[C@@H](CO)C(=O)NCC(=O)N[C@@H](C)C(=O)N4CCC[C@H]4C(=O)N4CCC[C@H]4C(=O)N4CCC[C@H]4C(=O)N[C@@H](CO)C(N)=O)NC1=O)C3=O)C2=O` (stereo not given in full) (HELM PEPTIDE1{H.[Aib].E.G.T.Y.T.N.D.V.T.E.Y.L.E.E.E.A.A.K.C.F.I.E.W.L.I.C.G.K.P.S.S.G.A.P.P.P.S.[am]}|CHEM1{[O=C(O)CCCCCCCCCCCCCCCCC(=O)NC(CCC(=O)NCCOCCOCC(=O)NCCCCCCNC(=O)C(CCCCNC(=O)CCN1C(=O)CC([*:1])C1=O)NC(=O)CCN1C(=O)CC([*:2])C1=O)C(=O)O]}$PEPTIDE1,CHEM1,21:R3-1:R1|PEPTIDE1,CHEM1,28:R3-1:R2$$$V2.0), the EC50 (in general, the concentration giving half of the maximal effect) in assay [1] was 0.14 nM; in assay [2], 8.6 nM. In assay [3], the Ratio EC50 was determined as 61.4.

For the molecule `CC[C@H](C)[C@@H]1NC(=O)[C@H](CC(C)C)NC(=O)[C@H](Cc2c[nH]c3ccccc23)NC(=O)[C@H](CCC(=O)O)NC(=O)[C@H]([C@@H](C)CC)NC(=O)[C@H](Cc2ccccc2)NC(=O)[C@@H](NC(=O)[C@H](CCCCN)NC(=O)[C@H](C)NC(=O)[C@H](C)NC(=O)[C@H](CCC(=O)O)NC(=O)[C@H](CCC(=O)O)NC(=O)[C@H](CCC(=O)O)NC(=O)[C@H](CC(C)C)NC(=O)[C@H](Cc2ccc(O)cc2)NC(=O)[C@H](CCC(=O)O)NC(=O)[C@@H](NC(=O)[C@@H](NC(=O)[C@H](CC(=O)O)NC(=O)[C@H](CC(N)=O)NC(=O)[C@@H](NC(=O)[C@H](Cc2ccc(O)cc2)NC(=O)[C@@H](NC(=O)CNC(=O)[C@H](CCC(=O)O)NC(=O)C(C)(C)NC(=O)[C@@H](N)Cc2c[nH]cn2)[C@@H](C)O)[C@@H](C)O)C(C)C)[C@@H](C)O)CSC2CC(=O)N(CCC(=O)NCCCCC(C(=O)NCCCCCCNC(=O)COCCOCCNC(=O)COCCOCCNC(=O)CCC(NC(=O)CCCCCCCCCCCCCCCCC(=O)O)C(=O)O)NC(=O)CCN3C(=O)CC(SC[C@@H](C(=O)NCC(=O)N[C@@H](CCCCN)C(=O)N4CCC[C@H]4C(=O)N[C@@H](CO)C(=O)N[C@@H](CO)C(=O)NCC(=O)N[C@@H](C)C(=O)N4CCC[C@H]4C(=O)N4CCC[C@H]4C(=O)N4CCC[C@H]4C(=O)N[C@@H](CO)C(N)=O)NC1=O)C3=O)C2=O` (stereo not given in full) (HELM PEPTIDE1{H.[Aib].E.G.T.Y.T.N.D.V.T.E.Y.L.E.E.E.A.A.K.C.F.I.E.W.L.I.C.G.K.P.S.S.G.A.P.P.P.S.[am]}|CHEM1{[O=C(O)CCCCCCCCCCCCCCCCC(=O)NC(CCC(=O)NCCOCCOCC(=O)NCCOCCOCC(=O)NCCCCCCNC(=O)C(CCCCNC(=O)CCN1C(=O)CC([*:1])C1=O)NC(=O)CCN1C(=O)CC([*:2])C1=O)C(=O)O]}$PEPTIDE1,CHEM1,21:R3-1:R1|PEPTIDE1,CHEM1,28:R3-1:R2$$$V2.0), the EC50 was determined as 0.17 nM in assay [1] and 16.5 nM in assay [2]. Besides, the Ratio EC50 in assay [3] was determined as 97.1.

As to `CC[C@H](C)[C@@H]1NC(=O)[C@H](CC(C)C)NC(=O)[C@H](Cc2c[nH]c3ccccc23)NC(=O)[C@H](CCC(=O)O)NC(=O)[C@H]([C@@H](C)CC)NC(=O)[C@H](Cc2ccccc2)NC(=O)[C@@H](NC(=O)[C@H](CCCCN)NC(=O)[C@H](C)NC(=O)[C@H](C)NC(=O)[C@H](CCC(=O)O)NC(=O)[C@H](CCC(=O)O)NC(=O)[C@H](CCC(=O)O)NC(=O)[C@H](CC(C)C)NC(=O)[C@H](Cc2ccc(O)cc2)NC(=O)[C@H](CCC(=O)O)NC(=O)[C@@H](NC(=O)[C@@H](NC(=O)[C@H](CC(=O)O)NC(=O)[C@H](CC(N)=O)NC(=O)[C@@H](NC(=O)[C@H](Cc2ccc(O)cc2)NC(=O)[C@@H](NC(=O)CNC(=O)[C@H](CCC(=O)O)NC(=O)C(C)(C)NC(=O)[C@@H](N)Cc2c[nH]cn2)[C@@H](C)O)[C@@H](C)O)C(C)C)[C@@H](C)O)CSC2CC(=O)N(CCC(=O)NCCCCC(C(=O)NCCCCCCNC(=O)COCCOCCNC(=O)CCCCCCCCCCCCCCCCC(=O)O)NC(=O)CCN3C(=O)CC(SC[C@@H](C(=O)NCC(=O)N[C@@H](CCCCN)C(=O)N4CCC[C@H]4C(=O)N[C@@H](CO)C(=O)N[C@@H](CO)C(=O)NCC(=O)N[C@@H](C)C(=O)N4CCC[C@H]4C(=O)N4CCC[C@H]4C(=O)N4CCC[C@H]4C(=O)N[C@@H](CO)C(N)=O)NC1=O)C3=O)C2=O` (stereo not given in full) (HELM PEPTIDE1{H.[Aib].E.G.T.Y.T.N.D.V.T.E.Y.L.E.E.E.A.A.K.C.F.I.E.W.L.I.C.G.K.P.S.S.G.A.P.P.P.S.[am]}|CHEM1{[O=C(O)CCCCCCCCCCCCCCCCC(=O)NCCOCCOCC(=O)NCCCCCCNC(=O)C(CCCCNC(=O)CCN1C(=O)CC([*:1])C1=O)NC(=O)CCN1C(=O)CC([*:2])C1=O]}$PEPTIDE1,CHEM1,21:R3-1:R1|PEPTIDE1,CHEM1,28:R3-1:R2$$$V2.0), the figures for the EC50 in assay [1] and in assay [2] were 0.15 nM and 2.3 nM, respectively. Besides, in assay [3], the Ratio EC50 stood at 15.3.

On to `CCCCCCCCCCCCCCCC(=O)NCCCCCCNC(=O)C1CCCCNC(=O)CCN2C(=O)CC(SC[C@@H](C(=O)NCC(=O)N[C@@H](CCCCN)C(N)=O)NC(=O)[C@H]([C@@H](C)CC)NC(=O)[C@H](CC(C)C)NC(=O)[C@H](Cc3c[nH]c4ccccc34)NC(=O)[C@H](CCC(=O)O)NC(=O)[C@H]([C@@H](C)CC)NC(=O)[C@H](Cc3ccccc3)NC(=O)[C@@H](NC(=O)[C@H](CCCCN)NC(=O)[C@H](C)NC(=O)[C@H](C)NC(=O)[C@H](CCC(=O)O)NC(=O)[C@H](CCC(=O)O)NC(=O)[C@H](CCC(=O)O)NC(=O)[C@H](CC(C)C)NC(=O)[C@H](Cc3ccc(O)cc3)NC(=O)[C@H](CCC(=O)O)NC(=O)[C@@H](NC(=O)[C@@H](NC(=O)[C@H](CC(=O)O)NC(=O)[C@H](CC(N)=O)NC(=O)[C@@H](NC(=O)[C@H](Cc3ccc(O)cc3)NC(=O)[C@@H](NC(=O)CNC(=O)[C@H](CCC(=O)O)NC(=O)C(C)(C)NC(=O)[C@@H](N)Cc3c[nH]cn3)[C@@H](C)O)[C@@H](C)O)C(C)C)[C@@H](C)O)CSC3CC(=O)N(CCC(=O)N1)C3=O)C2=O` (stereo not given in full) (HELM PEPTIDE1{H.[Aib].E.G.T.Y.T.N.D.V.T.E.Y.L.E.E.E.A.A.K.C.F.I.E.W.L.I.C.G.K.[am]}|CHEM1{[CCCCCCCCCCCCCCCC(=O)NCCCCCCNC(=O)C(CCCCNC(=O)CCN1C(=O)CC([*:2])C1=O)NC(=O)CCN1C(=O)CC([*:1])C1=O]}$PEPTIDE1,CHEM1,21:R3-1:R1|PEPTIDE1,CHEM1,28:R3-1:R2$$$V2.0), for which the results for the EC50 in assay [1] and in assay [2] were 0.12 nM and 2.2 nM, respectively. Moreover, in assay [3], the Ratio EC50 came to 18.3.

`CC[C@H](C)[C@@H]1NC(=O)[C@H](CC(C)C)NC(=O)[C@H](Cc2c[nH]c3ccccc23)NC(=O)[C@H](CCC(=O)O)NC(=O)[C@H]([C@@H](C)CC)NC(=O)[C@H](Cc2ccccc2)NC(=O)[C@@H](NC(=O)[C@H](CCCCN)NC(=O)[C@H](C)NC(=O)[C@H](C)NC(=O)[C@H](CCC(=O)O)NC(=O)[C@H](CCC(=O)O)NC(=O)[C@H](CCC(=O)O)NC(=O)[C@H](CC(C)C)NC(=O)[C@H](Cc2ccc(O)cc2)NC(=O)[C@H](CCC(=O)O)NC(=O)[C@@H](NC(=O)[C@@H](NC(=O)[C@H](CC(=O)O)NC(=O)[C@H](CC(N)=O)NC(=O)[C@@H](NC(=O)[C@H](Cc2ccc(O)cc2)NC(=O)[C@@H](NC(=O)CNC(=O)[C@H](CCC(=O)O)NC(=O)C(C)(C)NC(=O)[C@@H](N)Cc2c[nH]cn2)[C@@H](C)O)[C@@H](C)O)C(C)C)[C@@H](C)O)CSC2CC(=O)N(CCC(=O)NC(C(=O)NCCCCCCNC(=O)COCCOCCNC(=O)COCCOCCNC(=O)CCC(NC(=O)CCCCCCCCCCCCCCCCC(=O)O)C(=O)O)CCCCNC(=O)CCN3C(=O)CC(SC[C@@H](C(=O)NCC(=O)N[C@@H](CCCCN)C(N)=O)NC1=O)C3=O)C2=O` (stereo not given in full) (HELM PEPTIDE1{H.[Aib].E.G.T.Y.T.N.D.V.T.E.Y.L.E.E.E.A.A.K.C.F.I.E.W.L.I.C.G.K.[am]}|CHEM1{[O=C(O)CCCCCCCCCCCCCCCCC(=O)NC(CCC(=O)NCCOCCOCC(=O)NCCOCCOCC(=O)NCCCCCCNC(=O)C(CCCCNC(=O)CCN1C(=O)CC([*:2])C1=O)NC(=O)CCN1C(=O)CC([*:1])C1=O)C(=O)O]}$PEPTIDE1,CHEM1,21:R3-1:R1|PEPTIDE1,CHEM1,28:R3-1:R2$$$V2.0): the results for the EC50 in assay [1] and in assay [2] were 0.19 nM and 18.2 nM, respectively. For the same molecule, the Ratio EC50 in assay [3] was 95.8.
